Columns and labels:
caco-2 cells [1] = test: Evaluation Test 2: perfusion of fluorescent dyes through the tubular-form culture substrate, absorption into cultured cells; assay type: in vitro ADME; conditions: HBSS, flow rate 0.05 mL min^-1 for 1 hour; calcein 100 μmol L^-1, Texas Red 10 μmol L^-1
Procedure: Specifically, caco-2 cells imitating intestinal epithelium were cultured on a culture substrate. Caco-2 cells produced by DS pharma biomedical Co., Ltd. were used. The caco-2 cells were cultured in DMEM (Dulbecco-modified eagle's medium) to which 10% heat inactivated fetal bovine serum, penicillin G (100 U mL^−1), streptomycin (100 μg mL^−1), and 1% non-essential amino acid were added, under an environment at 37° C., 5% CO2), and 95% air. The caco-2 cells were dissociated in EDTA and 0.05% trypsin and passaged, and then the cells were seeded on collagen that forms a culture substrate on an upper surface of a balloon actuator. The caco-2 cells reached confluence in 7 days. The culture medium was replaced every 24 hours. […]
The culture substrate in the tubular form was perfused with HBSS (Hanks' Balanced Salt Solution) containing fluorescent dyes, as a liquid corresponding to a drug solution, at a flow rate of 0.05 mL min^−1 for 1 hour. […] Thereafter, bright field images and fluorescence images of the caco-2 cells at a bottom part and an upper part of the culture substrate in the tubular form were observed.
FIGS. 16A, 16B, 16C, 16D, 16E and 16G show microscope images of the caco-2 cells. […] FIGS. 16C and 16D show images obtained by imaging fluorescence signals from calcein at the bottom part and the upper part of the culture substrate in the tubular form, respectively. […]

caco-2 cells [2] = test: Evaluation Test 3: absorption of dyes in tubular-form culture substrates having different inner diameters; assay type: in vitro ADME; conditions: inner diameter 0.5, 1.0 and 2.0 mm; flow rate 0.05 mL/min, perfused for 3 minutes
From the text: The inventors of the present application studied dynamic characteristics of a fluid and absorption of a drug into a culture substrate in a tubular form when a liquid such as a drug solution was caused to flow in the culture substrate. Specifically, a fluid containing a drug was caused to flow in a plurality of types of tubular-form culture substrates having different inner diameters, and the states of the culture substrates before and after the flow of the fluid were observed. In addition, dynamic characteristics of the fluid in the respective tubular-form culture substrates were obtained by calculation.
where Q is the flow rate of the liquid, μ is the viscosity of the liquid, ρ is the density of the liquid, L is the length of the tube, and r is the radius of the tube. The flow rate Q of the liquid is 0.05 mL/min, and the liquid was perfused for 3 minutes.
FIGS. 19A, 19B and 19C show images obtained by causing a fluid containing Texas Red as a model of a lipophilic drug to flow in three types of tubular-form culture substrates having different diameters, and imaging fluorescence signals from the Texas Red. […]
FIGS. 20A, 20B and 20C show images obtained by causing a fluid containing calcein as a model of a hydrophilic drug to flow in three types of tubular-form culture substrates having different inner diameters, and imaging fluorescence signals from the calcein.

Row | absorption in the caco-2 cells (fluorescence images at bottom part and upper part of the tubular culture substrate) (caco-2 cells [1]) | Compound | speed of absorption depending on inner diameter of the tubular-form culture substrate (fluorescence images) (caco-2 cells [2])
1 | uniformly absorbed in the caco-2 cells | Texas Red | the smaller the inner diameter of the tube is, the faster the lipophilic drug is absorbed
2 | uniformly absorbed in the caco-2 cells | O=C(O)CN(CC(=O)O)Cc1cc2c(cc1O)Oc1cc(O)c(CN(CC(=O)O)CC(=O)O)cc1C21OC(=O)c2ccccc21 [calcein] | substantially no difference was observed in the speed of absorbing the hydrophilic drug

Reference: US20180282679A1, “CELL CULTURE APPARATUS” (The Ritsumeikan Trust, priority 2015, published 2018)
